Columns and labels:
Type in all cases: in vivo
[1] = test system: Solanum nigrum (SOLNI); experiment: Post-emergence herbicidal glasshouse test on Solanum nigrum; conditions: post-emergence; 1000 g/h; evaluated after 13 days
How it was run: (§1)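 Scoring scale: 5=80-100%, 4=60-79%, 3=40-59%, 2=20-39%, 1=0-19% damage, assessed on day 13. Compound sprayed at 1000 g/h on soil-grown plants (day 1 pre-, day 8 post-emergence) kept at 24/16 °C, 14 h light.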

[2] = test system: Amaranthus retoflexus (AMARE); experiment: Pre-emergence herbicidal glasshouse test on Amaranthus retoflexus; conditions: pre-emergence; 1000 g/h; evaluated after 13 days
How it was run: as §1

[3] = test system: Ipomoea hederacea (IPOHE); experiment: Post-emergence herbicidal glasshouse test on Ipomoea hederacea; conditions: post-emergence; 1000 g/h; evaluated after 13 days
How it was run: as §1

[4] = test system: Solanum nigrum (SOLNI); experiment: Pre-emergence herbicidal glasshouse test on Solanum nigrum; conditions: pre-emergence; 1000 g/h; evaluated after 13 days
How it was run: as §1

[5] = test system: Alopecurus myosuroides (ALOMY); experiment: Pre-emergence herbicidal glasshouse test on Alopecurus myosuroides; conditions: pre-emergence; 1000 g/h; evaluated after 13 days
How it was run: as §1

[6] = test system: Echinochloa crus-galli (ECHCG); experiment: Pre-emergence herbicidal glasshouse test on Echinochloa crus-galli; conditions: pre-emergence; 1000 g/h; evaluated after 13 days
How it was run: as §1

[7] = test system: Setaria faberi (SETFA); experiment: Pre-emergence herbicidal glasshouse test on Setaria faberi; conditions: pre-emergence; 1000 g/h; evaluated after 13 days
How it was run: as §1

[8] = test system: Alopecurus myosuroides (ALOMY); experiment: Post-emergence herbicidal glasshouse test on Alopecurus myosuroides; conditions: post-emergence; 1000 g/h; evaluated after 13 days
How it was run: as §1

[9] = test system: Setaria faberi (SETFA); experiment: Post-emergence herbicidal glasshouse test on Setaria faberi; conditions: post-emergence; 1000 g/h; evaluated after 13 days
How it was run: as §1

[10] = test system: Ipomoea hederacea (IPOHE); experiment: Pre-emergence herbicidal glasshouse test on Ipomoea hederacea; conditions: pre-emergence; 1000 g/h; evaluated after 13 days
How it was run: as §1

[11] = test system: Amaranthus retoflexus (AMARE); experiment: Post-emergence herbicidal glasshouse test on Amaranthus retoflexus; conditions: post-emergence; 1000 g/h; evaluated after 13 days
How it was run: as §1

[12] = test system: Echinochloa crus-galli (ECHCG); experiment: Post-emergence herbicidal glasshouse test on Echinochloa crus-galli; conditions: post-emergence; 1000 g/h; evaluated after 13 days
How it was run: as §1

Compound | POST Application SOLNI herbicidal damage (five point scale) [1] | PRE Application AMARE herbicidal damage (five point scale) [2] | POST Application IPOHE herbicidal damage (five point scale) [3] | PRE Application SOLNI herbicidal damage (five point scale) [4] | PRE Application ALOMY herbicidal damage (five point scale) [5] | PRE Application ECHCG herbicidal damage (five point scale) [6] | PRE Application SETFA herbicidal damage (five point scale) [7] | POST Application ALOMY herbicidal damage (five point scale) [8] | POST Application SETFA herbicidal damage (five point scale) [9] | PRE Application IPOHE herbicidal damage (five point scale) [10] | POST Application AMARE herbicidal damage (five point scale) [11] | POST Application ECHCG herbicidal damage (five point scale) [12]
Cc1c(-c2cnn(C)c(=O)c2O)ccc(S(C)(=O)=O)c1C1=NOCC1 [Compound 1.018] | 5 (5=80-100% damage) | 5 (5=80-100% damage) | 5 (5=80-100% damage) | 5 (5=80-100% damage) | 2 (2=20-39% damage) | 5 (5=80-100% damage) | 4 (4=60-79% damage) | 4 (4=60-79% damage) | 5 (5=80-100% damage) | 5 (5=80-100% damage) | 5 (5=80-100% damage) | 5 (5=80-100% damage)
Cn1ncc(-c2ccc(S(C)(=O)=O)c(F)c2Cl)c(O)c1=O [Compound 1.021] | 5 (5=80-100% damage) | 5 (5=80-100% damage) | 5 (5=80-100% damage) | 1 (1=0-19% damage) | 2 (2=20-39% damage) | 5 (5=80-100% damage) | 1 (1=0-19% damage) | 1 (1=0-19% damage) | 1 (1=0-19% damage) | 2 (2=20-39% damage) | 5 (5=80-100% damage) | 5 (5=80-100% damage)
Cn1ncc(-c2ccccc2C#N)c(O)c1=O [Compound 1.022] | 3 (3=40-59% damage) | 1 (1=0-19% damage) | 1 (1=0-19% damage) | 1 (1=0-19% damage) | 1 (1=0-19% damage) | 1 (1=0-19% damage) | 1 (1=0-19% damage) | 1 (1=0-19% damage) | 1 (1=0-19% damage) | 1 (1=0-19% damage) | 2 (2=20-39% damage) | 1 (1=0-19% damage)
Cn1ncc(-n2ccc(-c3ccc(C(F)(F)F)cc3)cc2=O)c(O)c1=O [Compound 1.023] | 2 (2=20-39% damage) | 5 (5=80-100% damage) | 1 (1=0-19% damage) | 1 (1=0-19% damage) | 2 (2=20-39% damage) | 1 (1=0-19% damage) | 4 (4=60-79% damage) | 2 (2=20-39% damage) | 4 (4=60-79% damage) | 1 (1=0-19% damage) | 3 (3=40-59% damage) | 1 (1=0-19% damage)
Cn1ncc(-n2ccc(C(F)(F)F)c(-c3cncnc3)c2=O)c(O)c1=O [Compound 1.024] | 5 (5=80-100% damage) | 5 (5=80-100% damage) | 4 (4=60-79% damage) | 1 (1=0-19% damage) | 1 (1=0-19% damage) | 2 (2=20-39% damage) | 1 (1=0-19% damage) | 1 (1=0-19% damage) | 3 (3=40-59% damage) | 4 (4=60-79% damage) | 5 (5=80-100% damage) | 2 (2=20-39% damage)
Cn1ncc(-n2cc(N3CCOCC3)c(C(F)(F)F)cc2=O)c(O)c1=O [Compound 1.025] | 4 (4=60-79% damage) | 1 (1=0-19% damage) | 2 (2=20-39% damage) | 1 (1=0-19% damage) | 1 (1=0-19% damage) | 1 (1=0-19% damage) | 1 (1=0-19% damage) | 1 (1=0-19% damage) | 1 (1=0-19% damage) | 1 (1=0-19% damage) | 2 (2=20-39% damage) | 1 (1=0-19% damage)
Cn1ncc(-n2ccc(C(F)(F)F)c(N3CCOCC3)c2=O)c(O)c1=O [Compound 1.026] | 5 (5=80-100% damage) | 5 (5=80-100% damage) | 5 (5=80-100% damage) | 5 (5=80-100% damage) | 5 (5=80-100% damage) | 5 (5=80-100% damage) | 5 (5=80-100% damage) | 5 (5=80-100% damage) | 5 (5=80-100% damage) | 5 (5=80-100% damage) | 5 (5=80-100% damage) | 5 (5=80-100% damage)
CSc1ccn(-c2cnn(C)c(=O)c2O)c(=O)c1 [Compound 1.027] | 5 (5=80-100% damage) | 5 (5=80-100% damage) | 5 (5=80-100% damage) | 4 (4=60-79% damage) | 1 (1=0-19% damage) | 5 (5=80-100% damage) | 3 (3=40-59% damage) | 1 (1=0-19% damage) | 5 (5=80-100% damage) | 1 (1=0-19% damage) | 5 (5=80-100% damage) | 5 (5=80-100% damage)
